Measurements from patent publication US20230286983A1 (4E Therapeutics, Inc., priority 2020, published 2023).
Like-named read-outs stand apart in the source and are kept apart here. Each block holds one compound with its values, some of them ahead of it.

What was measured:
[1] = Liver microsome stability, mouse; format: in vitro ADME; settings: mouse, liver microsomes, mouse liver microsomes, Table 11b; read-out: T1/2
[2] = Pharmacokinetic study, 4ET-01-021 with IV and PO dosing; format: in vivo, CD-1 male mice; settings: for concentration at 24 h: read-out: Clast; for bioavailability: read-out: F (oral bioavailability)
Method: 4ET-01-021 was dissolved in 10% dimethylacetamide (DMA)/90% propylene glycol (PG) for oral dosing and 10% DMI (dimethyl isosorbide)/15% EtOH (ethanol)/35% PG (propylene glycol)/40% NS (normal saline) for IV dosing. CD-1 male mice were dosed with 4ET-01-021 at 1.0 mg/kg (IV), 3.0 mg/kg (PO), or 10.0 mg/kg (PO). Plasma was collected at indicated timepoints and plasma concentration of 4ET-01-021 was measured using liquid chromatography-mass spectrometry/mass spectrometry (LC-MS/MS).
In mice, following IV administration with 1.0 mg/kg, plasma concentrations declined in a multiphasic manner with an initial concentration (Co) of 0.860 μg/mL and a last measurable concentration (Clast) of 19.3 ng/mL at 24 h post dose. […] Results are presented in Table 13; mean values averaged for 3 animals are shown.
Results are presented in Table 14; mean values averaged for 3 animals are shown.
Results are presented in Table 15; mean values averaged for 3 animals are shown.

[3] = system: eIF4E phosphorylation at Serine 209 in the human osteosarcoma (U2OS) cell line; experiment: eIF4E phosphorylation in U2OS cells (fluorescent plate reader); format: cell-based; settings: Homo sapiens, U2OS; eIF4E phosphorylation at Serine 209, 2 hours exposure
Method: The ability of MNK inhibitors described herein to inhibit eIF4E phosphorylation at Serine 209 in the human osteosarcoma (U2OS) cell line was tested by exposing the cells to compound for 2 hours and then measuring eIF4E phosphorylation with a phosphorylation-specific antibody in a fluorescent plate reader.

[4] = Liver microsome stability, rat; format: in vitro ADME; settings: Rat liver microsomes (#)
[5] = Liver microsome stability, human; format: in vitro ADME; settings: liver microsomes
[6] = biological target: T1, death-associated protein kinase-related apoptosis-inducing protein kinase 1 (DRAK1) (Homo sapiens, UniProt Q9UEE5); experiment: Off-target kinase screen DRAK1; format: biochemical; settings: 1 μM test compound
T1 sequence (Q9UEE5 1-414): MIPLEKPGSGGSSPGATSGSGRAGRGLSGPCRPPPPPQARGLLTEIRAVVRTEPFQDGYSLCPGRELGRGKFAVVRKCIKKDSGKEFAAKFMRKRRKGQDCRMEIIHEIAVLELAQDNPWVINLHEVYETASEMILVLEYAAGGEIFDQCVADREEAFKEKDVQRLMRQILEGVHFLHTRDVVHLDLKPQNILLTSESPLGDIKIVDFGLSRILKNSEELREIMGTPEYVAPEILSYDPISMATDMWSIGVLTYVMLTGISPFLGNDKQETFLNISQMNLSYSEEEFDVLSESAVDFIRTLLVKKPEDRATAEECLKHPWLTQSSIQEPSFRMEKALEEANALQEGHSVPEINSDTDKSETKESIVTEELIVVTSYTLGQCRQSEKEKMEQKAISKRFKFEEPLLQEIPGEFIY
From the text: (§1) These kinases were chosen because they are the only known off-target hit kinases for eFT508. These assays were done using recombinant human kinases (CLK4, DRAK1 and PKG2) in a substrate phosphorylation assay. % activity remaining after MNK inhibitor treatment is indicated in Table 12.

[7] = biological target: T2, protein kinase G 2 (PKG2) (Homo sapiens, UniProt Q13237); experiment: Off-target kinase screen PKG2; format: biochemical; settings: 1 μM test compound
T2 sequence (Q13237 1-762): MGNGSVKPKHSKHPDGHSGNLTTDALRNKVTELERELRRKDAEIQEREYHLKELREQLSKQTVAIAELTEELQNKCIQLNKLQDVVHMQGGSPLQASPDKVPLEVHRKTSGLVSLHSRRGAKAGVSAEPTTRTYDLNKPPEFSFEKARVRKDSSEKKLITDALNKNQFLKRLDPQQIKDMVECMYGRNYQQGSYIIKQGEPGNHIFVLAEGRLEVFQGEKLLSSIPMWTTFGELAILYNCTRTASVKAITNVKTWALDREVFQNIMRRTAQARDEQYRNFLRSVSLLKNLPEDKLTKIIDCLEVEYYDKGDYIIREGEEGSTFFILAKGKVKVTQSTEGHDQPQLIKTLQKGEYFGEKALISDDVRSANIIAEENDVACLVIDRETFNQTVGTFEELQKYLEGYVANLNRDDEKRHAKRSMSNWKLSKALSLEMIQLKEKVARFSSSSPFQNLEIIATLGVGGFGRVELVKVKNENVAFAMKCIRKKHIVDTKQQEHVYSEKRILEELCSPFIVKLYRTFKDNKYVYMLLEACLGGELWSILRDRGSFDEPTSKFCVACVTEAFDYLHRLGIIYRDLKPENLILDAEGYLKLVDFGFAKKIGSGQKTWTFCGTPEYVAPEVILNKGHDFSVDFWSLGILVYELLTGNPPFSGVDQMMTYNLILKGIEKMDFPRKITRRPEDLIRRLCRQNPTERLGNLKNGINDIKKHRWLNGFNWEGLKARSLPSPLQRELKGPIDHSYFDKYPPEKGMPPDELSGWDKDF
From the text: as §1

[8] = IV 1.0 mg/kg, mean of 3 animals
[9] = male, CD-1, mouse, plasma, po, orally dosed at 3 mg/kg, mean of 3 animals
[10] = male, CD-1, mouse, plasma, po, orally dosed at 10 mg/kg, mean of 3 animals
[11] = male, CD-1, mouse, plasma, IV 1.0 mg/kg, mean of 3 animals
[12] = orally dosed at 3 mg/kg, mean of 3 animals
[13] = orally dosed at 10 mg/kg, mean of 3 animals

half-life [1]: 1.55 h
AUConf/D [2, 8]: 2420 kg·h/kL
Tlast [2, 8]: 24.0 h
V55 [2, 8]: 3.49 L/kg
AUC(0-inf) ([2]; male, CD-1, mouse, plasma, iv, 1 mg/kg, IV 1.0 mg/kg, mean of 3 animals, read-out: AUCinf): 2420 ng·h/mL
AUC(0-inf) ([2]; male, CD-1, mouse, plasma, iv, 1 mg/kg, IV 1.0 mg/kg, read-out: total systemic exposure (AUCinf)): 2420 ng·h/mL
AUC(0-inf) ([2]; male, CD-1, mouse, plasma, po, 3 mg/kg, oral 3 mg/kg, read-out: total systemic exposure (AUCinf)): 4500 ng·h/mL
AUC(0-inf) ([2]; male, CD-1, mouse, plasma, po, 3 mg/kg, orally dosed at 3 mg/kg, mean of 3 animals, read-out: AUCinf): 4500 ng·h/mL
AUC(0-inf) ([2]; male, CD-1, mouse, plasma, po, 10 mg/kg, oral 10 mg/kg, read-out: total systemic exposure (AUCinf)): 12000 ng·h/mL
AUC(0-inf) ([2]; male, CD-1, mouse, plasma, po, 10 mg/kg, orally dosed at 10 mg/kg, mean of 3 animals, read-out: AUCinf): 12000 ng·h/mL
AUC(0-t) [2, 9]: 4130 ng·h/mL
Cmax [2, 9]: 643 ng/mL
MRT inf [2, 9]: 8.41 h
Tmax [2, 9]: 0.5 h
half-life [2, 9]: 7.11 h
concentration at 24 h [2, 9]: 36.3 ng/mL
bioavailability [2, 9]: 61.9%
AUC(0-t) [2, 10]: 11000 ng·h/mL
Cmax [2, 10]: 1900 ng/mL
MRT inf [2, 10]: 8.51 h
Tmax [2, 10]: 0.25 h
half-life [2, 10]: 7.44 h
concentration at 24 h [2, 10]: 99.5 ng/mL
bioavailability [2, 10]: 49.6%
AUC(0-t) [2, 11]: 2190 ng·h/mL
MRT inf [2, 11]: 8.32 h
half-life [2, 11]: 8.42 h
clearance ([2]; male, CD-1, mouse, plasma, IV 1.0 mg/kg, mean of 3 animals, read-out: CLp): 6.97 mL/min/kg
concentration at 24 h [2, 11]: 19.3 ng/mL
Vd ([2]; male, CD-1, mouse, plasma, IV 1.0 mg/kg, mean of 3 animals, read-out: Vz): 5.1 L/kg
C0 ([2]; male, CD-1, mouse, plasma, IV 1.0 mg/kg, read-out: initial concentration (Co)): 860 ng/mL
AUCinf/D [2, 12]: 1500 kg·h/kL
Tlast [2, 12]: 24 h
AUCinf/D [2, 13]: 1202 kg·h/kL
Tlast [2, 13]: 24 h
Structure (SMILES): CCC1=CC2(CCC1)NC(=O)c1c(C)cc(Nc3cc(N)ncn3)c(=O)n12 (stereo not drawn) [Compound 4ET-01-021, 6′-((6-Aminopyrimidin-4-yl)amino)-3-ethyl-8′-methyl-2′H-spiro[cyclohexane-1,3′-imidazo[1,5-a]pyridin]-2-ene-1′,5′-dione]

IC50 [3]: 1.7 nM
microsomal CLint ([4]; read-out: CLint rodent): 2.54 µL/min/mg
half-life ([4]; read-out: Rodent liver microsomes t1/2): 9.08 h
microsomal CLint [5]: 2.16 µL/min/mg
half-life ([5]; read-out: Human liver microsomes t1/2): 10.7 h
remaining activity at 1 µM [7]: 99%
Structure (SMILES): Cc1cc(Nc2cc(NC(=O)C3CC3)ncn2)c(=O)n2c1C(=O)NC21CCOCC1 [Compound 4ET-03-009, N-(6-((8-Methyl-1,5-dioxo-1,2′,3′,5,5′,6′-hexahydro-2H-spiro[imidazo[1,5-a]pyridine-3,4′-pyran]-6-yl)amino)pyrimidin-4-yl)cyclopropanecarboxamide]
remaining activity at 1 µM [6]: 16%
